Experimental data: patent US9938261B2, “Heterocyclic compounds and methods of use thereof” (AMBIT BIOSCIENCES CORPORATION, priority 2011, dated 2018)
Read-outs that look alike come from different tables or passages of the source.

Columns and labels:
PDGFRβ = target: T1, PDGFRβ (Homo sapiens, UniProt P09619); test: Competition binding assay, PDGFRβ Kd
T1 construct: made in house
Summary of the method: (§1)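 Kinases, either T7 phage fusions or HEK-293-expressed and DNA-tagged, competed with test compounds for immobilized biotinylated affinity ligand on streptavidin beads in binding buffer (20% SeaBlock, 0.17×PBS, 0.05% Tween 20, 6 mM DTT). After 1 hour at room temperature, bead-bound kinase was eluted and quantified by qPCR; Kd from eleven-point threefold dilutions.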

CSF1R [1] = target: T2, CSF1R (Homo sapiens, UniProt P07333); test: Competition binding assay, CSF1R Kd; set-up: made in house
Summary of the method: as §1

KIT = target: T3, KIT (Homo sapiens, UniProt P10721); test: Competition binding assay, KIT Kd
T3 construct: made in house
Summary of the method: as §1

[2] = target: kinase panel containing either 386 or 392 distinct kinases; test: Kinase selectivity score S10 from competition binding panel
Experimental: Competition binding assays used herein were developed, validated and performed as described in Fabian et al., Nature Biotechnology 2005, 23, 329-336. Kinases were produced as fusions to T7 phage (See, Fabian et al. or WO04/015142) or alternatively, the kinases were expressed in HEK-293 cells and subsequently tagged with DNA for PCR detection (See, WO08/005310). For the binding assays, streptavidin-coated magnetic beads were treated with biotinylated affinity ligands for 30 min at room temperature to generate affinity resins. The liganded beads were blocked with excess biotin and washed with blocking buffer (SeaBlock (Pierce), 1% BSA, 0.05% Tween 20, 1 mM DTT) to remove unbound ligand and to reduce non-specific binding. Binding reactions were assembled by combining kinase, liganded affinity beads, and test compounds in 1× binding buffer (20% SeaBlock, 0.17×PBS, 0.05% Tween 20, 6 mM DTT). Test compounds were prepared as 100× stocks in DMSO and diluted into the aqueous environment. Kds were determined using an eleven point threefold serial dilutions. DMSO or control compounds were was added to control assays lacking a test compound. Primary screen assays were performed in polypropylene 384-well plates in a final volume of 20-40 μL, while Kd determinations were performed in polystyrene 96-well plates in a final volume of 135 μL. The assay plates were incubated at room temperature with shaking for 1 hour to allow the binding reactions to reach equilibrium, and the affinity beads were washed extensively with wash buffer (1×PBS, 0.05% Tween 20) to remove unbound protein. The beads were then resuspended in elution buffer (1×PBS, 0.05% Tween […] non-biotinylated affinity ligand) and incubated at room temperature with shaking for 30 min. The kinase concentration in the eluates was measured by quantitative PCR.
A selectivity score (S10) is a quantitative measure of selectivity of a compound against a panel of kinases. An S10 was calculated for a compound by dividing the number of kinases found to have a percent of control (DMSO) less than 10 by the total number of distinct kinases tested (excluding mutant variants). Percent of control (POC) is calculated by subtracting the signal of the control compound (POC=0) from the signal of the test compound and dividing the outcome by the signal of DMSO (POC=100) minus the signal of the control compound. For the compounds disclosed herein, S10 scores were obtained by testing the compounds at 10 μM concentration in a kinase panel containing either 386 or 392 distinct kinases.

CSF1R [3] = target: T2, CSF1R; test: HEK293 CSF1R phosphorylation MSD assay; type: cell-based; set-up: expressed in transfected cells; host or cells: HEK293; conditions: read-out: HEK293 pCSF1R M-CSF MSD:IC50
Summary of the method: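 Ligand-induced CSF1R autophosphorylation was measured by MSD sandwich assay: CSF1R-FKBP from lysates captured via FK506, anti-phosphotyrosine readout. Cells were exposed to compound for 2 h (9-point, half-log, 0.5% DMSO) before 5 min 50 ng/mL M-CSF. Reported IC50 is the mean of duplicate-plate IC50s relative to DMSO control.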

[4] = 10 μM, panel of 386 or 392 distinct kinases
[5] = HEK293 cells, M-CSF stimulated CSF1R phosphorylation, MSD
[6] = compounds at 10 μM, 386 or 392 distinct kinases
[7] = 2 h compound, human M-CSF 50 ng/mL for 5 min

T2 sequence (P07333 20-972): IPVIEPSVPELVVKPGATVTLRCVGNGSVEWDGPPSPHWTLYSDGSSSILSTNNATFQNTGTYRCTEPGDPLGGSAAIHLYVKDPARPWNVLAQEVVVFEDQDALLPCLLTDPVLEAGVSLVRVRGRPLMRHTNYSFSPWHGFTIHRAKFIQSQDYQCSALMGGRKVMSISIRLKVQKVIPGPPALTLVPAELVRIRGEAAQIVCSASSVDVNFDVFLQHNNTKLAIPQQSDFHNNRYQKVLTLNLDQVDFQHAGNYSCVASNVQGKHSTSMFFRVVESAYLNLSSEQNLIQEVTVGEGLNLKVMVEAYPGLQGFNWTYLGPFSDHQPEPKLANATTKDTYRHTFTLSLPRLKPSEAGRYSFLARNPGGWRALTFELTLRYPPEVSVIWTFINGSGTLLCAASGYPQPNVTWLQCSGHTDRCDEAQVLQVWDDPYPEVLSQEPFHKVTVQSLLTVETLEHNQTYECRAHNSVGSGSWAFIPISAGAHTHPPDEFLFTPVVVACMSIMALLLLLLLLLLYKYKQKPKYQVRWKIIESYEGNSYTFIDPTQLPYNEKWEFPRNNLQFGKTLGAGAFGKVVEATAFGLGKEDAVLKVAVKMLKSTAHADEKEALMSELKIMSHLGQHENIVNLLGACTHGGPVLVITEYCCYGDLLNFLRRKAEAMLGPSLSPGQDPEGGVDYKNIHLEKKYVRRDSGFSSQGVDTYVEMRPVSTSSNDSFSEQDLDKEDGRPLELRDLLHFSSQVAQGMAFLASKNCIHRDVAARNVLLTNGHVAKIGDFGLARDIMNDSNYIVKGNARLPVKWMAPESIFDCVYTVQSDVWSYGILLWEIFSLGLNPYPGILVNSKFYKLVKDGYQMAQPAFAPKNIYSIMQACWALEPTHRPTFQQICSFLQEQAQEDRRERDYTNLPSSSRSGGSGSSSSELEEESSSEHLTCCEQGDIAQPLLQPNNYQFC
T3 sequence (P10721 26-976): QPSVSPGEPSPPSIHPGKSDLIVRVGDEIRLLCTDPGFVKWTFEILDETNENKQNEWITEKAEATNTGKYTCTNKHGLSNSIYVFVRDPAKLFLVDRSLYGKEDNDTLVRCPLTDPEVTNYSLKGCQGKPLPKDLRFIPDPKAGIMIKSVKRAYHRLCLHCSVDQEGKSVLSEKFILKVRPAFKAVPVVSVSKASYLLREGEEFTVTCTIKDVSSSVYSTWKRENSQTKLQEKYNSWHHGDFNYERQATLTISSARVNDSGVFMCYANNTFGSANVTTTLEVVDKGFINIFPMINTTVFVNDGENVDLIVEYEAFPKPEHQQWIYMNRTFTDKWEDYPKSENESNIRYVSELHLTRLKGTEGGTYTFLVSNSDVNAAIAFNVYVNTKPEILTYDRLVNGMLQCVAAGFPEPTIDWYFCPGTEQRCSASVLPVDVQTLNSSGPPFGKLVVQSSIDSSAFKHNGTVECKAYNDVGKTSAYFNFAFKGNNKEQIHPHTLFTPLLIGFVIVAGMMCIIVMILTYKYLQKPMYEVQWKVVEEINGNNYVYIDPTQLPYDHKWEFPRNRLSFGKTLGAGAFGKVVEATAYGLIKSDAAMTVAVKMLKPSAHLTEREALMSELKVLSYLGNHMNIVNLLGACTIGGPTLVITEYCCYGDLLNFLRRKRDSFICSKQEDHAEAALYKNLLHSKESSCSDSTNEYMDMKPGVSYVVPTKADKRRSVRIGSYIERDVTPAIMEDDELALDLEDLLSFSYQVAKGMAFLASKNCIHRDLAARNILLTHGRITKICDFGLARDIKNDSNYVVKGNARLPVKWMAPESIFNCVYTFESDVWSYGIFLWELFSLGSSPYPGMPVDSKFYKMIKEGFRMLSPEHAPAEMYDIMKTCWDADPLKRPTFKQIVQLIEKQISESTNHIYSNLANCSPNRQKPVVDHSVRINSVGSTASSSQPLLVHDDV
T1 sequence (P09619 33-1106): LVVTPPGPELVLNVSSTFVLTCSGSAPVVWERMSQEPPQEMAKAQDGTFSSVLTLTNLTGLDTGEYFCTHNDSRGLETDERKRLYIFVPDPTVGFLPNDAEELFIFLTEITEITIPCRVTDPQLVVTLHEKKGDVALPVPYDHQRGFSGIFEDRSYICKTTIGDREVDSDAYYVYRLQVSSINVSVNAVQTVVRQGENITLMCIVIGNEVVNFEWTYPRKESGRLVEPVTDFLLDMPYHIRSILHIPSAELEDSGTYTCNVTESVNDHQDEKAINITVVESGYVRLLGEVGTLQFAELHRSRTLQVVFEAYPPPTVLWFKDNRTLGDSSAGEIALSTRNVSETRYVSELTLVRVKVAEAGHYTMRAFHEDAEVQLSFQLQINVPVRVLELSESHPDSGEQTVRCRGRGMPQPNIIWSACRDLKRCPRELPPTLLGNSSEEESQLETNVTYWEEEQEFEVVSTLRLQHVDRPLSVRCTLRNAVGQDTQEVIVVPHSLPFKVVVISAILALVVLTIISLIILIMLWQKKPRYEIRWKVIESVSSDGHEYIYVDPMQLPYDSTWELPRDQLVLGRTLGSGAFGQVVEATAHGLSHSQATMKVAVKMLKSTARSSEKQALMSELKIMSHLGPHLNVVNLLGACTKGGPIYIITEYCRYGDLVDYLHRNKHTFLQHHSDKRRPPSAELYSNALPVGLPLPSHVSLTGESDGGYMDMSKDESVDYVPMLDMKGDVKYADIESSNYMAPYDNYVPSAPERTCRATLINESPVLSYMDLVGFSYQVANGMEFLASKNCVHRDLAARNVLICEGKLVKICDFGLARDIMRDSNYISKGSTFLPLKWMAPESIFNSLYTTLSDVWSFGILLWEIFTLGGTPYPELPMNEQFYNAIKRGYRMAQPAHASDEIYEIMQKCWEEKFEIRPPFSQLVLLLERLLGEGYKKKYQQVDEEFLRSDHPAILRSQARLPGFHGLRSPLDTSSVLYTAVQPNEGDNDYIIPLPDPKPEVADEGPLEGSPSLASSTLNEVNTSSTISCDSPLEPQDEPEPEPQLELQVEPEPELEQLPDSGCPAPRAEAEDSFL

Kd (PDGFRβ; competition binding) [nM]	Kd (CSF1R [1]; competition binding) [nM]	Kd (KIT; competition binding) [nM]	Kinase specificity S(10) [2, 4]	IC50 (CSF1R [3]; [5]) [nM]	Kd (PDGFRβ) [nM]	Kd (CSF1R [1]) [nM]	Kd (KIT) [nM]	Kinase specificity S(10) [2, 6]	IC50 (CSF1R [3]; [7]) [nM]	SMILES
50 to 500	5 to 20	500 to 2000	A (A≤0.01)	50 to 200						C=CCOc1ccn2c(Cc3ccc4nc(N[C@@H]5CCCC[C@H]5O)sc4c3)cnc2c1 [Example 217, (1R,2R)-2-((6-((7-(allyloxy)imidazo[1,2-a]pyridin-3-yl)methyl)benzo[d]thiazol-2-yl)amino)cyclohexanol]
					50 to 500	5 to 20	500 to 2000	A (A≤0.01)	50 to 200	O[C@@H]1CCCC[C@H]1Nc1nc2ccc(Cn3cnc4cncnc43)cc2s1 [Example 48, (1R,2R)-2-((6-((9H-purin-9-yl)methyl)benzo[d]thiazol-2-yl)amino)cyclohexanol]
> 2000	5 to 20	> 2000	A (A≤0.01)	200 to 500						OC1CCN(c2ccn3c(Cc4ccc5nc(N[C@@H]6CCCC[C@H]6O)sc5c4)cnc3c2)CC1 [Example 199, 1-(3-((2-(((1R,2R)-2-hydroxycyclohexyl)amino)benzo[d]thiazol-6-yl)methyl)imidazo[1,2-a]pyridin-7-yl)piperidin-4-ol]
					≤ 50	≤ 5	≤ 100	B (0.01<B≤0.02)	≤ 50	CSc1cnc2c(c1)ncn2Cc1ccc2nc(N[C@@H]3CCCC[C@H]3O)sc2c1 [Example 85, (1R,2R)-2-((6-((6-(methylthio)-3H-imidazo[4,5-b]pyridin-3-yl)methyl)benzo[d]thiazol-2-yl)amino)cyclohexanol]
500 to 2000	20 to 50	500 to 2000	A (A≤0.01)	200 to 500						CC(O)c1ccn2c(Cc3ccc4nc(N[C@@H]5CCCC[C@H]5O)sc4c3)cnc2c1 (stereo partly drawn) [Example 201, (1R,2R)-2-((6-((7-(1-hydroxyethyl)imidazo[1,2-a]pyridin-3-yl)methyl)benzo[d]thiazol-2-yl)amino)cyclohexanol]
					> 2000	> 50	> 2000	A (A≤0.01)	> 500	CNC(=O)c1cn(Cc2ccc3nc(N[C@@H]4CCCC[C@H]4O)sc3c2)cn1 [Example 37, 1-((2-(((1R,2R)-2-hydroxycyclohexyl)amino)benzo[d]thiazol-6-yl)methyl)-N-methyl-1H-imidazole-4-carboxamide]
					≤ 50	5 to 20	≤ 100	C (C>0.02)	50 to 200	OC1(CNc2nc3ccc(Cn4cnc5cccnc54)cc3s2)CCCCC1 [Example 75, 1-(((6-((3H-imidazo[4,5-b]pyridin-3-yl)methyl)benzo[d]thiazol-2-yl)amino)methyl)cyclohexanol]
					500 to 2000	5 to 20	500 to 2000	A (A≤0.01)	200 to 500	COc1cc2c(cc1Br)ncn2Cc1ccc2nc(N[C@@H]3c4ccccc4C[C@H]3O)sc2c1 [Example 49, (1R,2R)-1-((6-((5-bromo-6-methoxy-1H-benzo[d]imidazol-1-yl)methyl)benzo[d]thiazol-2-yl)amino)-2,3-dihydro-1H-inden-2-ol]
50 to 500	5 to 20	500 to 2000	A (A≤0.01)	50 to 200						C=Cc1ccn2c(Cc3ccc4nc(N[C@@H]5CCCC[C@H]5O)sc4c3)cnc2c1 [Example 216, (1R,2R)-2-((6-((7-vinylimidazo[1,2-a]pyridin-3-yl)methyl)benzo[d]thiazol-2-yl)amino)cyclohexanol]
					> 2000	5 to 20	500 to 2000	B (0.01<B≤0.02)	50 to 200	COc1cc2c(cc1C#N)ncn2Cc1ccc2nc(N[C@@H]3CCCC[C@H]3O)sc2c1 [Example 65, 1-((2-(((1R,2R)-2-hydroxycyclohexyl)amino)benzo[d]thiazol-6-yl)methyl)-6-methoxy-1H-benzo[d]imidazole-5-carbonitrile]
50 to 500	5 to 20	100 to 500	A (A≤0.01)	50 to 200						N#Cc1cc(F)c2c(c1)ncn2Cc1ccc2nc(N[C@@H]3CCCC[C@H]3O)sc2c1 [Example 206, 7-fluoro-1-((2-(((1R,2R)-2-hydroxycyclohexyl)amino)benzo[d]thiazol-6-yl)methyl)-1H-benzo[d]imidazole-5-carbonitrile]
					≤ 50	5 to 20	≤ 100	C (C>0.02)	50 to 200	COc1cc2ncn(Cc3ccc4nc(N[C@@H](C)C5CCCCC5)sc4c3)c2cc1OC [Example 33, (S)—N-(1-cyclohexylethyl)-6-((5,6-dimethoxy-1H-benzo[d]imidazol-1-yl)methyl)benzo[d]thiazol-2-amine]
50 to 500	5 to 20	100 to 500	A (A≤0.01)	50 to 200						O[C@@H]1CCCC[C@H]1Nc1nc2ccc(Cn3cnc4cc(N5CCOCC5)ccc43)cc2s1 [Example 209, (1R,2R)-2-((6-((5-morpholino-1H-benzo[d]imidazol-1-yl)methyl)benzo[d]thiazol-2-yl)amino)cyclohexanol]
					≤ 50	5 to 20	≤ 100	B (0.01<B≤0.02)	≤ 50	O[C@@H]1Cc2ccccc2[C@H]1Nc1nc2ccc(Cn3cnc4ccc(Br)nc43)cc2s1 [Example 80, (1R,2R)-1-((6-((5-bromo-3H-imidazo[4,5-b]pyridin-3-yl)methyl)benzo[d]thiazol-2-yl)amino)-2,3-dihydro-1H-inden-2-ol]
500 to 2000	20 to 50	500 to 2000	A (A≤0.01)	200 to 500						O=C1CCCCN1c1ccc2c(c1)ncn2Cc1ccc2nc(N[C@@H]3CCCC[C@H]3O)sc2c1 [Example 210, 1-(1-((2-(((1R,2R)-2-hydroxycyclohexyl)amino)benzo[d]thiazol-6-yl)methyl)-1H-benzo[d]imidazol-5-yl)piperidin-2-one]
					> 2000	5 to 20	500 to 2000	A (A≤0.01)	50 to 200	Cn1cc(-c2cn(Cc3ccc4nc(N[C@@H]5CCCC[C@H]5O)sc4c3)cn2)cn1 [Example 36, (1R,2R)-2-((6-((4-(1-methyl-1H-pyrazol-4-yl)-1H-imidazol-1-yl)methyl)benzo[d]thiazol-2-yl)amino)cyclohexanol]
					≤ 50	≤ 5	≤ 100	C (C>0.02)	≤ 50	O[C@@H]1Cc2ccccc2[C@H]1Nc1nc2ccc(Cn3cnc4cc(Br)cnc43)cc2o1 [Example 62, (1R,2R)-1-((6-((6-bromo-3H-imidazo[4,5-b]pyridin-3-yl)methyl)benzo[d]oxazol-2-yl)amino)-2,3-dihydro-1H-inden-2-ol]
500 to 2000	5 to 20	500 to 2000	A (A≤0.01)	50 to 200						O[C@@H]1CCCC[C@H]1Nc1nc2ccc(Cc3cnc4cc(-n5nccn5)ccn34)cc2s1 [Example 215, (1R,2R)-2-((6-((7-(2H-1,2,3-triazol-2-yl)imidazo[1,2-a]pyridin-3-yl)methyl)benzo[d]thiazol-2-yl)amino)cyclohexanol]
